Results from patent publication EP0878193A1, “REMEDIES FOR HERPESVIRUS INFECTION CAUSED BY HERPESVIRUS AND PREVENTIVES FOR RECURRENCE OF THE INFECTION BOTH CONTAINING TRITERPENE DERIVATIVES AS THE ACTIVE INGREDIENT” (Showa Shell Sekiyu K.K., priority 1996, dated 1997).
In brackets after ≈: the same amount, converted by molar mass.

Tests used:
[1] = test system: HSV-1; assay: plaque formation test (antiviral activity, CPE as index) on Vero cells; type: cell-based, herpes simplex virus type 1 (strain 7401 H); conditions: Human alphaherpesvirus 1, Vero, 50% plaque formation inhibition concentration; HSV-1 on Vero cells; three experiments; read-out: EC50 (µg/mℓ) (average ± standard deviation)
Text: (§1) In order to examine antiviral activity, herpes simplex virus type 1 (strain 7401 H) (referred sometimes to as "HSV-1" hereinafter), TK deficiency herpes simplex virus type 1 (strain B 2006) (referred sometimes to as "TK^-" hereinafter), phosphono acetic acid (referred to as "PAA" hereinafter) resistant herpes simplex virus type 1 (PAA resistant strain derived from 7401 H) (referred sometimes to as "AP^r1" hereinafter) and herpes simplex virus type 2 (strain Ito 1262) (referred sometimes to as "HSV-2" hereinafter) were used as viruses. […]
(§2) That is, the above-described virus solution was diluted to a concentration of 100 plaques/0.2 mℓ, the thus diluted virus solution (0.2 mℓ) was inoculated into Vero cells which have been cultured into monolayer in a plastic dish of 60 mm in diameter, and the mixture was incubated at 37°C for 1 hour to effect adsorption of viruses to the Vero cells. After the adsorption, 2% fetal bovine serum-added MEM medium (5 mℓ) containing each drug solution to be measured having varied drug concentration and 0.8% methyl cellulose was overlaid on the just described virus-adsorbed monolayer Vero cells which were subsequently cultured at 37°C for 2 to 5 days to effect plaque formation. […] The number of plaques was counted under a stereoscopic microscope. […]

[2] = test system: TK^-; assay: as above; type: cell-based, TK deficiency herpes simplex virus type 1 (strain B 2006); conditions: Human alphaherpesvirus 1, Vero, read-out: EC50 (µg/mℓ) (average ± standard deviation)
Text: as §1, §2

[3] = test system: HSV-2; assay: as above; type: cell-based, herpes simplex virus type 2 (strain Ito 1262); conditions: Human alphaherpesvirus 2, Vero, 50% plaque formation inhibition concentration; HSV-2 on Vero cells; three experiments; read-out: EC50 (µg/mℓ) (average ± standard deviation)
Text: as §1, §2

[4] = test system: HSV-1; assay: skin infection of BALB/c mice with HSV-1, scoring of affected parts and survival; type: in vivo
Text: In order to illustratively confirm the effect of 3-oxo-olean-18-en-28-oic acid (moronic acid) to inhibit growth of viruses after viral infection, skin cell tissues of BALB/c mice were infected with the strain HSV-1 and then the parts affected thereafter were observed and scored. The scores were made based on the average time (days ± standard deviation) until the affected parts reached score 2 (local efflorescence, bulla, erosion) or score 6 (slight shingles) and based on the survival days.

[5] = test system: HSV-1; assay: amount of virus in skin and brain of mice infected with HSV-1 (plaque assay of tissue homogenates); type: in vivo; conditions: for Skin/brain (ratio): ratio of the percentages of skin and brain
Method: Next, effects of 3-oxo-olean-18-en-28-oic acid (moronic acid) against a virus in the animal body were examined by infecting skin cell tissues of mice with the viral strain HSV-1 and measuring the amount of the virus particles remained in the affected part of the skin and those migrated from the skin into intracerebral nerve cells 2, 3, 4 and 6 days after the infection, when a control (water only) or a varied amount of 3-oxo-olean-18-en-28-oic acid (moronic acid) was administered to the mice. In each of the experiments 1 and 2, three mice were used in one group and the average number of virus particles obtained from each mouse was used as the amount of virus. The amount of virus was measured by cutting off an area of 1 cm^2 around the affected part in the case of the skin or using the entire brain portion in the case of the brain. Each of the tissue samples was mixed with 2 mℓ of physiological saline and homogenated, the supernatant fluid obtained therefrom was used as a virus test solution to carry out a plaque assay (plaque measuring method) using cultured Vero cells, and the number of plaques thus counted was used as the amount of virus. The skin/brain ratio is a value calculated as the ratio of respective percentages obtained from the skin and the brain.
With regard to the numeral in ( ) such as (100%), (65.4%) or the like shown in the item of the amount of virus, the amount of virus in the control was defined as 100% and shown as (100%), the ratio of residual virus particles when 10 mg/kg of moronic acid was administered was 65.4% so that it was shown as (65.4%), and other numerals in ( ) under respective data were shown in the same manner.

[6] = test system: Vero cells; assay: cytotoxicity (observation, no method given); conditions: at the concentration by which it showed anti-herpesvirus activity
[7] = Exp. 3, 1 mg/kg oral three times a day
[8] = Exp. 3, 10 mg/kg oral three times a day
[9] = Exp.1, 1 mg/kg oral three times a day
[10] = Exp.2, 0.2 mg/kg oral three times a day
[11] = Exp.2, 1 mg/kg oral three times a day
[12] = Exp.2, 5 mg/kg oral three times a day
[13] = Exp. 1, 2 days after infection, 10 mg/kg
[14] = Exp. 1, 4 days after infection, 1 mg/kg
[15] = Exp. 1, 4 days after infection, 10 mg/kg
[16] = Exp. 1, 6 days after infection, 1 mg/kg
[17] = Exp. 1, 6 days after infection, 10 mg/kg
[18] = Exp. 2, 3 days after infection, 1 mg/kg
[19] = Exp. 2, 3 days after infection, 5 mg/kg
[20] = Exp. 2, 6 days after infection, 1 mg/kg
[21] = Exp. 2, 6 days after infection, 5 mg/kg

## CC1(C)C=C2[C@H]3CC[C@@H]4[C@@]5(C)CCC(=O)C(C)(C)[C@@H]5CC[C@@]4(C)[C@]3(C)CC[C@@]2(C(=O)O)CC1 [Moronic acid, 3-oxo-olean-18-en-28-oic acid]
[1]
  EC50: 3.9 ± 1.1 µg/mL (≈ 8.58 µM)
[2]
  EC50: 2 ± 0.4 µg/mL (≈ 4.4 µM)
[3]
  EC50: 5.8 ± 0.5 µg/mL (≈ 12.8 µM)
[4]; [7]
  Average time (days ± standard deviation) Score-2 (local efflorescence, bulla, erosion): 3.80 ± 0.63 b days
  Average time (days ± standard deviation) Score-6 (slight shingles): 5.60 ± 0.71 days
  Average time (days ± standard deviation) Survival: 7.70 ± 2.16 days
[4]; [8]
  Average time (days ± standard deviation) Score-2 (local efflorescence, bulla, erosion): 3.70 ± 0.48 b days
  Average time (days ± standard deviation) Score-6 (slight shingles): 5.30 ± 0.48 days
  Average time (days ± standard deviation) Survival: 6.80 ± 0.42 days
[4]; [9]
  Average time (days ± standard deviation) Score-2 (local efflorescence, bulla, erosion): 3.90 ± 0.70 b days
  Average time (days ± standard deviation) Score-6 (slight shingles): 5.70 ± 0.68 b days
  Average time (days ± standard deviation) Survival: 7.30 ± 1.16 b days
[4]; [10]
  Average time (days ± standard deviation) Score-2 (local efflorescence, bulla, erosion): 4.00 ± 0.47 d days
  Average time (days ± standard deviation) Score-6 (slight shingles): 5.78 ± 0.97 days
  Average time (days ± standard deviation) Survival: 6.89 ± 0.33 days
[4]; [11]
  Average time (days ± standard deviation) Score-2 (local efflorescence, bulla, erosion): 3.60 ± 0.70 days
  Average time (days ± standard deviation) Score-6 (slight shingles): 5.40 ± 0.52 days
  Average time (days ± standard deviation) Survival: 7.00 ± 1.49 days
[4]; [12]
  Average time (days ± standard deviation) Score-2 (local efflorescence, bulla, erosion): 3.90 ± 0.74 b days
  Average time (days ± standard deviation) Score-6 (slight shingles): 5.40 ± 0.53 days
  Average time (days ± standard deviation) Survival: 7.10 ± 1.52 days
[5]; [13]
  Amount of virus (average ± standard deviation, PFU/organ) Skin: 4.9 ± 0.0 (log10 PFU)/cm^2
  Amount of virus Skin, relative to control defined as 100%: 91.2%
[5]; [14]
  Amount of virus (average ± standard deviation, PFU/organ) Brain: < 2.4 ± 0.0 (log10 PFU)/total
  Amount of virus (average ± standard deviation, PFU/organ) Skin: 6.1 ± 0.4 (log10 PFU)/cm^2
  Amount of virus Brain, relative to control defined as 100%: < 83.9%
  Amount of virus Skin, relative to control defined as 100%: 93.5%
  Skin/brain (ratio): >1.12
[5]; [15]
  Amount of virus (average ± standard deviation, PFU/organ) Brain: < 2.40 ± 0.0 (log10 PFU)/total
  Amount of virus (average ± standard deviation, PFU/organ) Skin: 6.3 ± 0.3 (log10 PFU)/cm^2
  Amount of virus Brain, relative to control defined as 100%: < 83.9%
  Amount of virus Skin, relative to control defined as 100%: 96.3%
  Skin/brain (ratio): >1.15
[5]; [16]
  Amount of virus (average ± standard deviation, PFU/organ) Brain: 3.5 ± 0.4 (log10 PFU)/total
  Amount of virus (average ± standard deviation, PFU/organ) Skin: 6.1 ± 0.2 (log10 PFU)/cm^2
  Amount of virus Brain, relative to control defined as 100%: 85.6%
  Amount of virus Skin, relative to control defined as 100%: 95.3%
  Skin/brain (ratio): 1.12
[5]; [17]
  Amount of virus (average ± standard deviation, PFU/organ) Brain: 2.3 ± 0.3 (log10 PFU)/total
  Amount of virus (average ± standard deviation, PFU/organ) Skin: 6.0 ± 0.1 (log10 PFU)/cm^2
  Amount of virus Brain, relative to control defined as 100%: 57.0%
  Amount of virus Skin, relative to control defined as 100%: 94.2%
  Skin/brain (ratio): 1.674
[5]; [18]
  Amount of virus (average ± standard deviation, PFU/organ) Skin: 5.5 ± 0.4 (log10 PFU)/cm^2
  Amount of virus Skin, relative to control defined as 100%: 98.2%
[5]; [19]
  Amount of virus (average ± standard deviation, PFU/organ) Skin: 5.1 ± 0.4 (log10 PFU)/cm^2
  Amount of virus Skin, relative to control defined as 100%: 91.5%
[5]; [20]
  Amount of virus (average ± standard deviation, PFU/organ) Brain: 3.0 ± 0.6 (log10 PFU)/total
  Amount of virus (average ± standard deviation, PFU/organ) Skin: 4.8 ± 0.7 (log10 PFU)/cm^2
  Amount of virus Brain, relative to control defined as 100%: 80.7%
  Amount of virus Skin, relative to control defined as 100%: 93.9%
  Skin/brain (ratio): 1.16
[5]; [21]
  Amount of virus (average ± standard deviation, PFU/organ) Brain: 2.7 ± 0.3 (log10 PFU)/total
  Amount of virus (average ± standard deviation, PFU/organ) Skin: 5.6 ± 0.2 (log10 PFU)/cm^2
  Amount of virus Brain, relative to control defined as 100%: 72.2%
  Amount of virus Skin, relative to control defined as 100%: 109.0%
  Skin/brain (ratio): 31.9
[6]
  cytotoxicity: not observed
